Test results taken from the kinase profiling compilation of Christmann-Franck et al. (2016).

What was measured:
Test in all cases: radiometric filter-binding kinase assay
DYRK2 (human) = DYRK2 (human) (UniProt Q92630)
MAPKAPK5 (human) = MAPKAPK5 (human) (UniProt Q8IW41)
MAPK9 (human) = MAPK9 (human) (UniProt P45984)
CSK (human) = CSK (human) (UniProt P41240)
MAPK8 (human) = MAPK8 (human) (UniProt P45983)
MAPK14 (human) = MAPK14 (human) (UniProt Q16539)
IKBKB (human) = IKBKB (human) (UniProt O14920)
MAPK15 (human) = MAPK15 (human) (UniProt Q8TD08)
MKNK2 (human) = MKNK2 (human) (UniProt Q9HBH9)
PIM1 (human) = PIM1 (human) (UniProt P11309)
HIPK2 (human) = HIPK2 (human) (UniProt Q9H2X6)
PRKACA (human) = PRKACA (human) (UniProt P17612)
IGF1R (human) = IGF1R (human) (UniProt P08069)
PAK7 (human) = PAK7 (human) (UniProt Q9P286)
IKBKE (human) = IKBKE (human) (UniProt Q14164)
MELK (human) = MELK (human) (UniProt Q14680)
EPHB3 (human) = EPHB3 (human) (UniProt P54753)
CSNK1D (human) = CSNK1D (human) (UniProt P48730)
MAPKAPK2 (human) = MAPKAPK2 (human) (UniProt P49137)
DYRK1A (human) = DYRK1A (human) (UniProt Q13627)
CaMK1 (human) = CaMK1 (human) (UniProt Q14012)
BTK (human) = BTK (human) (UniProt Q06187)
MAPK12 (human) = MAPK12 (human) (UniProt P53778)
YES1 (human) = YES1 (human) (UniProt P07947)
PAK4 (human) = PAK4 (human) (UniProt O96013)
CAMKK2 (human) = CAMKK2 (human) (UniProt Q96RR4)

Sequence of MKNK2 (human) (Q9HBH9 whole entry, looked up): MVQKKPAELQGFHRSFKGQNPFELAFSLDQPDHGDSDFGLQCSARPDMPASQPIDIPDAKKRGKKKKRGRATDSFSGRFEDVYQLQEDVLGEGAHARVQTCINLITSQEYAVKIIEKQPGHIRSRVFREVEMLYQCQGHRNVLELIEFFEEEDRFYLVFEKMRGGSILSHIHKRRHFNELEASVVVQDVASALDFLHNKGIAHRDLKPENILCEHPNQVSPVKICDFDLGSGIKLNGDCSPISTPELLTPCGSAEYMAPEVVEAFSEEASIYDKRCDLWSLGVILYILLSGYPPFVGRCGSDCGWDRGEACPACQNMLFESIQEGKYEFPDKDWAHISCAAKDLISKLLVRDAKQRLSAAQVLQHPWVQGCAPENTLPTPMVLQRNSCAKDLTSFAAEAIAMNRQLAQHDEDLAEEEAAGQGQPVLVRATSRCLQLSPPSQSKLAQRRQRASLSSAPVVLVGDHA
Sequence of HIPK2 (human) (Q9H2X6 whole entry, looked up): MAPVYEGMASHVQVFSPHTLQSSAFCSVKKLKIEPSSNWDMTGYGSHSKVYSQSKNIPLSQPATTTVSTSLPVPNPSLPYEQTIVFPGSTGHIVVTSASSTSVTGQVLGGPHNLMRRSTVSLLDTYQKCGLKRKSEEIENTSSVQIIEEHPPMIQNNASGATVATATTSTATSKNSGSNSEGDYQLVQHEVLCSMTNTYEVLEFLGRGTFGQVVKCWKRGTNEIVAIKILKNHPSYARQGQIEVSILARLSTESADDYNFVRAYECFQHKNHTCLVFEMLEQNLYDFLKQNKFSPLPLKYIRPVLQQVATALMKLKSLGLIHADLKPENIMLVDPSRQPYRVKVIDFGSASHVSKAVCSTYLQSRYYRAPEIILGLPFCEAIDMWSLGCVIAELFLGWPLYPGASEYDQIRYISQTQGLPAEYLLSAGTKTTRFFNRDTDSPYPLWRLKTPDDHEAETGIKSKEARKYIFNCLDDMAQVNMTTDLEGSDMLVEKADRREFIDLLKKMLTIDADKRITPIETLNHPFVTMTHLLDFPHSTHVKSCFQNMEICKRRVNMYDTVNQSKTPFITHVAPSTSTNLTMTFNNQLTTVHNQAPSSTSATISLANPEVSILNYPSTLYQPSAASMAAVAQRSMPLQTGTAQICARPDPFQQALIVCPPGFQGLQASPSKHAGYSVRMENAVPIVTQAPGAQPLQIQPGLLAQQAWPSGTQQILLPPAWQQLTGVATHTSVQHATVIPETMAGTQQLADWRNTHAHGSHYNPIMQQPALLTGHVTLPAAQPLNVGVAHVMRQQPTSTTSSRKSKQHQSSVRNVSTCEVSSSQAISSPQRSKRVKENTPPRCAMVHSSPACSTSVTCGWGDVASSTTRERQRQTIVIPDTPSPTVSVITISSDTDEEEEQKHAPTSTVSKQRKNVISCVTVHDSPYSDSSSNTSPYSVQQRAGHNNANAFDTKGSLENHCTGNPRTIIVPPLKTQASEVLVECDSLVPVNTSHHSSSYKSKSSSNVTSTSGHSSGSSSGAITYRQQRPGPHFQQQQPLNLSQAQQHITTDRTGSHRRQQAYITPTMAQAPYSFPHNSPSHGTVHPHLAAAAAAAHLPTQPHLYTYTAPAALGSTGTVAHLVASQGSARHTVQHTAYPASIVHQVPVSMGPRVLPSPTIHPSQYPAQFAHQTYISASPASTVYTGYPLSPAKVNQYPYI
Sequence of MAPKAPK5 (human) (Q8IW41 whole entry, looked up): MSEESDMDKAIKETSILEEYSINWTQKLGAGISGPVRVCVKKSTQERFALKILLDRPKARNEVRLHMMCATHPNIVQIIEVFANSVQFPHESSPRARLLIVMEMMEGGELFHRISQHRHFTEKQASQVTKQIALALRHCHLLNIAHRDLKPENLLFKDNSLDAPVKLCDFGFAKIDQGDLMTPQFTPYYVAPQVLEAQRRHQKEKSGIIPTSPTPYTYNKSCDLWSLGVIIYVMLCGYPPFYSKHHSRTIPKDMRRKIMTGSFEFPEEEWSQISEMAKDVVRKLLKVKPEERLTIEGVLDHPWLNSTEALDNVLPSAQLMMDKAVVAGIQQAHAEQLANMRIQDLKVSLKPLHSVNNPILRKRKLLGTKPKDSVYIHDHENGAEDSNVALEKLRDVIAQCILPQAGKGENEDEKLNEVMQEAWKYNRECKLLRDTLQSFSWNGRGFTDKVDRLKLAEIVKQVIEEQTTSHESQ
Sequence of EPHB3 (human) (P54753 whole entry, looked up): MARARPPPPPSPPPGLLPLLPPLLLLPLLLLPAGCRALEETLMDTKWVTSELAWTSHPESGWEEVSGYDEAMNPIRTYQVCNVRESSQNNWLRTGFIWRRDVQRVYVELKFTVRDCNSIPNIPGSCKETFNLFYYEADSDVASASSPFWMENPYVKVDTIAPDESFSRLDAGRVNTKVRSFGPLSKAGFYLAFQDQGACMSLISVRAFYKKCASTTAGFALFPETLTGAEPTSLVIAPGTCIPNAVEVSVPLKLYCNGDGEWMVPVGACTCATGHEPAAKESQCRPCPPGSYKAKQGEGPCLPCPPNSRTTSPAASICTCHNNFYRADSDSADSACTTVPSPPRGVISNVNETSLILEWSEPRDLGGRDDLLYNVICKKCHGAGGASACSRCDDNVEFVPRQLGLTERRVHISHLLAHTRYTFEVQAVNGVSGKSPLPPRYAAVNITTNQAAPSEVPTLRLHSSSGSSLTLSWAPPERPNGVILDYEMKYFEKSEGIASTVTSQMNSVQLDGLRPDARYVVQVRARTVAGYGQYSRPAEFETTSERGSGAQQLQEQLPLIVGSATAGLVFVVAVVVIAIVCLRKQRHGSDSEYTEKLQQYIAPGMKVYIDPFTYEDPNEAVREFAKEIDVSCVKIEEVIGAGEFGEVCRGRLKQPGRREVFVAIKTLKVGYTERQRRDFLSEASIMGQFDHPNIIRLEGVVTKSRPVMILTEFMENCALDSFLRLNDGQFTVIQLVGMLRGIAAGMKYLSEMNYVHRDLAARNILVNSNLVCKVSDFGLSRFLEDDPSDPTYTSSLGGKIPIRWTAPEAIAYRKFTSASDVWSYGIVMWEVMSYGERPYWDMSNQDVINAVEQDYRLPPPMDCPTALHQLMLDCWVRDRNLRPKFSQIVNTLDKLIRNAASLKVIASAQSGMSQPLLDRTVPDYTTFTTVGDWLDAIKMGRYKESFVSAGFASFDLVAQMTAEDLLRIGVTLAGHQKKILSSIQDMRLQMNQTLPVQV
Sequence of MAPK15 (human) (Q8TD08 whole entry, looked up): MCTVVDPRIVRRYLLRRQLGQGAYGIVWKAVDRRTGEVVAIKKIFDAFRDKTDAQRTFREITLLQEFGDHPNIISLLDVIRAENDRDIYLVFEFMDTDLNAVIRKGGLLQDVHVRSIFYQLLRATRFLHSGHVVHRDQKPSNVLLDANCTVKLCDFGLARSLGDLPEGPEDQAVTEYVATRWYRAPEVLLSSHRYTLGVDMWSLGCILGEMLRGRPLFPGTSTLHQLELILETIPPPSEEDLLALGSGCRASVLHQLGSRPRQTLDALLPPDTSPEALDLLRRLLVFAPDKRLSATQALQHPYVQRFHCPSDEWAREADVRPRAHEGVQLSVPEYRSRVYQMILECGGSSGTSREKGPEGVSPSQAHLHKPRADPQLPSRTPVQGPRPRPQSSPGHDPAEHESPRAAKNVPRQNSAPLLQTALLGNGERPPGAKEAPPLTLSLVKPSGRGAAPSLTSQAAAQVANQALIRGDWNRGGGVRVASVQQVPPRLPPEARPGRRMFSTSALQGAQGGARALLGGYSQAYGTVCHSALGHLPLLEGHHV
Sequence of IKBKE (human) (Q14164 whole entry, looked up): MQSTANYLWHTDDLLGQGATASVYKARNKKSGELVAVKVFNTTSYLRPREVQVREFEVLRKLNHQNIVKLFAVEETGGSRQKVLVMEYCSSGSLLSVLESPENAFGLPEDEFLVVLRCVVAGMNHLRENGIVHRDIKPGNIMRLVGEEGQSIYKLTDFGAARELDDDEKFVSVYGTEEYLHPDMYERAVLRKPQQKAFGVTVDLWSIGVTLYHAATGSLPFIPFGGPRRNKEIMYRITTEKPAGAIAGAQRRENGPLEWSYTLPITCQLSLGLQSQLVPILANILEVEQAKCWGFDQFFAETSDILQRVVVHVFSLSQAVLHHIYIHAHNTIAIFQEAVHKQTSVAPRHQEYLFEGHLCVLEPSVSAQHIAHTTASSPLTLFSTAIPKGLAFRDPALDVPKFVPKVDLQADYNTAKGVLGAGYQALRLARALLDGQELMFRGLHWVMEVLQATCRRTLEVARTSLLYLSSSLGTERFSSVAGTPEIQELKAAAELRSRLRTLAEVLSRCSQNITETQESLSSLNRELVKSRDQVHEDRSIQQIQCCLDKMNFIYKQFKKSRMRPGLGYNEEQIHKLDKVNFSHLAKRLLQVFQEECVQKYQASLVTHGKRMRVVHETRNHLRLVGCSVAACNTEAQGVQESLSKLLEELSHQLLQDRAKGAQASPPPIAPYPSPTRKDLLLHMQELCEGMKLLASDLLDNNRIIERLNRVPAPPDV
Sequence of MELK (human) (Q14680 whole entry, looked up): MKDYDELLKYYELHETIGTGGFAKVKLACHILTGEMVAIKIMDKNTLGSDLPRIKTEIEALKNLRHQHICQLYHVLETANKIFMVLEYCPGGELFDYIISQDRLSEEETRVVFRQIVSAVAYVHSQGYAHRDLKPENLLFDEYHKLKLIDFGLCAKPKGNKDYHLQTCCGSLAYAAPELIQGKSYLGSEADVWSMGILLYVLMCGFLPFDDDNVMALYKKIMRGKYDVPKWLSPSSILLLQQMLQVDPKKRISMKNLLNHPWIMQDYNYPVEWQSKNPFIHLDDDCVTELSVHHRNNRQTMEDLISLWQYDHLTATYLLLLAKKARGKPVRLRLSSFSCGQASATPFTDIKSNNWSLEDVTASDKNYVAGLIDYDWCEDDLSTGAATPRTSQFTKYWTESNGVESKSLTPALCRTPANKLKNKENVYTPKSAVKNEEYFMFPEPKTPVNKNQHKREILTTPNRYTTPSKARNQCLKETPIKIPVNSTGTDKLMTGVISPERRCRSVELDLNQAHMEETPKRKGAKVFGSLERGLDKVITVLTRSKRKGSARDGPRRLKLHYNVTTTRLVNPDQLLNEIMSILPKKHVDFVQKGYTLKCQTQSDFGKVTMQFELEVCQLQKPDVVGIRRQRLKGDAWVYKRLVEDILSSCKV

In the case of `NC(=O)Nc1ccc2c(c1)/C(=C/c1cc(-c3cccnc3)c[nH]1)C(=O)N2`, the residual activity (DYRK2 (human); compound 0.1 µM) is reported as 19%, the residual activity (DYRK2 (human); compound 1.0 µM) is reported as 2% and the residual activity (DYRK2 (human); compound 10.0 µM) is reported as 0%. For the same compound, the residual activity (MAPKAPK5 (human); compound 0.1 µM) was 95%, the residual activity (MAPKAPK5 (human); compound 1.0 µM) was 50% and the residual activity (MAPKAPK5 (human); compound 10.0 µM) was 8%. It also gave a residual activity (MAPK9 (human); compound 1.0 µM) of 43%, a residual activity (MAPK9 (human); compound 10.0 µM) of 17% and a residual activity (CSK (human); compound 0.1 µM) of 98%. For the same compound, the residual activity (CSK (human); compound 1.0 µM) was 69%, the residual activity (CSK (human); compound 10.0 µM) was 42% and the residual activity (MAPK8 (human); compound 0.1 µM) was 124%. For the same compound, the residual activity (MAPK8 (human); compound 1.0 µM) was 99%, the residual activity (MAPK8 (human); compound 10.0 µM) was 48% and the residual activity (MAPK14 (human); compound 0.1 µM) was 81%. The residual activity (MAPK14 (human); compound 1.0 µM) was 80%, the residual activity (MAPK14 (human); compound 10.0 µM) was 45% and the residual activity (IKBKB (human); compound 0.1 µM) was 75%. The residual activity (IKBKB (human); compound 10.0 µM) was 26%, the residual activity (MAPK15 (human); compound 0.1 µM) was 5% and the residual activity (MAPK15 (human); compound 1.0 µM) was 2%. It also gave a residual activity (MAPK15 (human); compound 10.0 µM) of 1%, a residual activity (MKNK2 (human); compound 0.1 µM) of 75% and a residual activity (MKNK2 (human); compound 1.0 µM) of 46%. It also gave a residual activity (MKNK2 (human); compound 10.0 µM) of 16%, a residual activity (PIM1 (human); compound 0.1 µM) of 43% and a residual activity (PIM1 (human); compound 1.0 µM) of 9%. For the same compound, the residual activity (PIM1 (human); compound 10.0 µM) was 2%, the residual activity (HIPK2 (human); compound 0.1 µM) was 33% and the residual activity (HIPK2 (human); compound 1.0 µM) was 7%. For the same compound, the residual activity (HIPK2 (human); compound 10.0 µM) was 1%, the residual activity (PRKACA (human); compound 0.1 µM) was 78% and the residual activity (PRKACA (human); compound 1.0 µM) was 66%. For the same compound, the residual activity (PRKACA (human); compound 10.0 µM) was 32%, the residual activity (IGF1R (human); compound 1.0 µM) was 33% and the residual activity (IGF1R (human); compound 10.0 µM) was 1%. It also gave a residual activity (PAK7 (human); compound 0.1 µM) of 75%, a residual activity (PAK7 (human); compound 1.0 µM) of 43% and a residual activity (PAK7 (human); compound 10.0 µM) of 8%. The residual activity (IKBKE (human); compound 0.1 µM) was 51%, the residual activity (IKBKE (human); compound 1.0 µM) was 12% and the residual activity (IKBKE (human); compound 10.0 µM) was 11%. For the same compound, the residual activity (MELK (human); compound 0.1 µM) was 16%, the residual activity (MELK (human); compound 1.0 µM) was 3% and the residual activity (MELK (human); compound 10.0 µM) was 0%. For the same compound, the residual activity (EPHB3 (human); compound 0.1 µM) was 107%, the residual activity (EPHB3 (human); compound 1.0 µM) was 90% and the residual activity (EPHB3 (human); compound 10.0 µM) was 53%. It also gave a residual activity (CSNK1D (human); compound 0.1 µM) of 90%, a residual activity (CSNK1D (human); compound 1.0 µM) of 59% and a residual activity (CSNK1D (human); compound 10.0 µM) of 20%. For the same compound, the residual activity (MAPKAPK2 (human); compound 0.1 µM) was 86%, the residual activity (MAPKAPK2 (human); compound 1.0 µM) was 49% and the residual activity (MAPKAPK2 (human); compound 10.0 µM) was 10%. For the same compound, the residual activity (DYRK1A (human); compound 0.1 µM) was 42%, the residual activity (DYRK1A (human); compound 1.0 µM) was 11% and the residual activity (CaMK1 (human); compound 0.1 µM) was 112%. It also gave a residual activity (CaMK1 (human); compound 1.0 µM) of 69%, a residual activity (CaMK1 (human); compound 10.0 µM) of 19% and a residual activity (BTK (human); compound 0.1 µM) of 86%. The residual activity (BTK (human); compound 1.0 µM) was 29%, the residual activity (BTK (human); compound 10.0 µM) was 9% and the residual activity (MAPK12 (human); compound 0.1 µM) was 93%. It also gave a residual activity (MAPK12 (human); compound 1.0 µM) of 86%, a residual activity (YES1 (human); compound 0.1 µM) of 32% and a residual activity (YES1 (human); compound 1.0 µM) of 8%. For the same compound, the residual activity (YES1 (human); compound 10.0 µM) was 3%, the residual activity (PAK4 (human); compound 0.1 µM) was 64% and the residual activity (PAK4 (human); compound 1.0 µM) was 31%. For the same compound, the residual activity (CAMKK2 (human); compound 0.1 µM) was 67%, the residual activity (CAMKK2 (human); compound 1.0 µM) was 41% and the residual activity (CAMKK2 (human); compound 10.0 µM) was 35%.
